Laboratory results reported in US4628047A (priority 1982, dated 1986).
Converted amounts (≈) assume the structure as drawn. Counter-ions that a name gives are not always drawn. Like-named read-outs stand apart in the source and are kept apart here.

Assays:
[1] = system: P388 leukemia cells having resistance to vincristine; assay: Growth inhibition of VCR-resistant P388 leukemia cells (P388/VCR); type: cell-based; details: for IC50: Mus musculus; for Enhancement effect: on VCR
[2] = system: VCR-resistant P388 leukemia cells; assay: Antitumor enhancement effects in mice inoculated with VCR-resistant P388 leukemia cells; type: in vivo, CDF1 female mice; details: i.p., 10 days
P388 leukemia cells = assay: Growth inhibition of non-resistant P388 leukemia cells; type: cell-based; details: for IC50: Mus musculus
K562 = assay: Growth inhibition of K562 leukemia cells; type: cell-based, human; details: for IC50: Homo sapiens, K562, VCR; for Enhancement effect: on VCR
K562/VCR = assay: Growth inhibition of VCR-resistant K562 leukemia cells (K562/VCR); type: cell-based, human; details: for IC50: Homo sapiens, VCR; for Enhancement effect: on VCR
[3] = system: B16 melanoma cells B16 mix; assay: Antitumor enhancement effect in solid tumor cells, B16 mix; type: cell-based; details: on VCR, diltiazem 0 μM
B16 melanoma cells F10 = assay: Antitumor enhancement effect in solid tumor cells, B16 F10; type: cell-based; details: on VCR, diltiazem 0 μM
B16 melanoma cells F1 = assay: Antitumor enhancement effect in solid tumor cells, B16 F1; type: cell-based; details: on VCR, diltiazem 0 μM
B16 melanoma cells B2 = assay: Antitumor enhancement effect in solid tumor cells, B16 B2; type: cell-based; details: on VCR, diltiazem 0 μM
B16 melanoma cells BL-6 = assay: Antitumor enhancement effect in solid tumor cells, B16 BL-6; type: cell-based; details: on VCR, diltiazem 0 μM
[4] = system: Colon 26 tumor cells C26 mix; assay: Antitumor enhancement effect in solid tumor cells, C26 mix; type: cell-based; details: on VCR, diltiazem 0 μM
[5] = system: Colon 26 tumor cells NL-33; assay: Antitumor enhancement effect in solid tumor cells, colon 26 NL-33; type: cell-based; details: on VCR, diltiazem 0 μM
Colon 26 tumor cells N-1 = assay: Antitumor enhancement effect in solid tumor cells, colon 26 N-1; type: cell-based; details: on VCR, diltiazem 0 μM
Colon 26 tumor cells N-5 = assay: Antitumor enhancement effect in solid tumor cells, colon 26 N-5; type: cell-based; details: on VCR, diltiazem 0 μM
[6] = system: Colon 26 tumor cells KL-2; assay: Antitumor enhancement effect in solid tumor cells, colon 26 KL-2; type: cell-based; details: on VCR, diltiazem 0 μM
P388/ADM = assay: Growth inhibition of ADM-resistant P388 leukemia cells (P388/ADM); type: cell-based; details: for Enhancement effect: on ADM; for IC50: Mus musculus
[7] = system: P388 leukemia cells having no resistance or resistance to VCR and ADM and human leukemia cells K562; assay: Antitumor enhancement effects of diltiazem in resistant and non-resistant tumor cells (summary); type: cell-based; details: regardless of whether the tumor cells are non-resistant or resistant
Source text: Antitumor enhancement effects of diltiazem in resistant and non-resistant tumor cells: […]

[8] = system: ADM-resistant P388 leukemia cells; assay: Antitumor enhancement effect in mice inoculated with ADM-resistant P388 leukemia cells; type: in vivo, CDF1 female mice; details: diltiazem HCl 125 mg/kg alone, i.p., 10 days
[9] = VCR 30 μg/kg + diltiazem HCl 60 mg/kg
[10] = VCR 30 μg/kg + diltiazem HCl 80 mg/kg
[11] = VCR 30 μg/kg + diltiazem HCl 100 mg/kg
[12] = VCR 30 μg/kg + diltiazem HCl 125 mg/kg
[13] = VCR 100 μg/kg + diltiazem HCl 60 mg/kg
[14] = VCR 100 μg/kg + diltiazem HCl 80 mg/kg
[15] = VCR 100 μg/kg + diltiazem HCl 100 mg/kg
[16] = VCR 100 μg/kg + diltiazem HCl 125 mg/kg
[17] = VCR 200 μg/kg + diltiazem HCl 60 mg/kg
[18] = VCR 200 μg/kg + diltiazem HCl 80 mg/kg
[19] = VCR 200 μg/kg + diltiazem HCl 100 mg/kg
[20] = VCR 200 μg/kg + diltiazem HCl 125 mg/kg
[21] = diltiazem hydrochloride 180 mg per day, 4 days, in addition to vincristine 1 mg/week

CC[C@]1(O)C[C@H]2CN(CCc3c([nH]c4ccccc34)[C@@](C(=O)OC)(c3cc4c(cc3OC)N(C=O)[C@H]3[C@@](O)(C(=O)OC)[C@H](OC(C)=O)[C@]5(CC)C=CCN6CC[C@]43[C@@H]65)C2)C1 [VCR, vincristine]
IC50 ([1]; P388, VCR, diltiazem 0 μM, P388/VCR): 29.7 ± 2.87 ng/mL (≈ 36 nM)
IC50 ([1]; P388, VCR, with diltiazem 10 μM, P388/VCR): 3.07 ± 0.09 ng/mL (≈ 3.72 nM)
IC50 ([1]; P388, VCR, with diltiazem 35 μM, P388/VCR): 1.03 ± 0.06 ng/mL (≈ 1.25 nM)
IC50 ([1]; P388, VCR, with diltiazem 100 μM, P388/VCR): 0.55 ± 0.17 ng/mL (≈ 0.667 nM)
IC50 ([1]; P388, read-out: concentration of vincristine showing 50% inhibition of the resistant cells, with diltiazem (hydrochloride) 35 μM or 100 μM): ≤ 1 ng/mL
Enhancement effect ([1]; diltiazem 0 μM, P388/VCR): 1
Survival time ([2]; VCR 30 μg/kg alone): 10.6 ± 2.1 days
T/C ([2]; VCR 30 μg/kg alone): 93%
T/V ([2]; VCR 30 μg/kg alone): 100%
Survival time ([2]; VCR 100 μg/kg alone): 10.8 ± 1.3 days
T/C ([2]; VCR 100 μg/kg alone): 95%
T/V ([2]; VCR 100 μg/kg alone): 100%
Survival time ([2]; VCR 200 μg/kg alone): 12.4 ± 1.0 days
T/C ([2]; VCR 200 μg/kg alone): 109%
T/V ([2]; VCR 200 μg/kg alone): 100%
IC50 (P388 leukemia cells; P388, VCR, diltiazem 0 μM): 1.88 ± 0.13 ng/mL (≈ 2.28 nM)
IC50 (P388 leukemia cells; P388, VCR, with diltiazem 10 μM): 1.43 ± 0.12 ng/mL (≈ 1.73 nM)
IC50 (P388 leukemia cells; P388, VCR, with diltiazem 35 μM): 0.56 ± 0.06 ng/mL (≈ 0.679 nM)
IC50 (P388 leukemia cells; P388, VCR, with diltiazem 100 μM): 0.45 ± 0.02 ng/mL (≈ 0.545 nM)
Enhancement effect (P388 leukemia cells; on VCR, diltiazem 0 μM): 1
IC50 (K562; diltiazem 0 μM): 2.33 ± 0.24 ng/mL (≈ 2.82 nM)
IC50 (K562; with diltiazem 10 μM): 1.52 ± 0.09 ng/mL (≈ 1.84 nM)
IC50 (K562; with diltiazem 35 μM): 1 ± 0.17 ng/mL (≈ 1.21 nM)
IC50 (K562; with diltiazem 100 μM): 0.69 ± 0.1 ng/mL (≈ 0.836 nM)
Enhancement effect (K562; diltiazem 0 μM): 1
IC50 (K562/VCR; diltiazem 0 μM): 200 ± 16.3 ng/mL (≈ 242 nM)
IC50 (K562/VCR; with diltiazem 10 μM): 23 ± 2.16 ng/mL (≈ 27.9 nM)
IC50 (K562/VCR; with diltiazem 35 μM): 4.1 ± 0.36 ng/mL (≈ 4.97 nM)
IC50 (K562/VCR; with diltiazem 100 μM): 2.57 ± 0.41 ng/mL (≈ 3.12 nM)
Enhancement effect (K562/VCR; diltiazem 0 μM): 1
ratio of IC50 dose (enhancement effect of diltiazem) [3]: 1.0
ratio of IC50 dose (enhancement effect of diltiazem) (B16 melanoma cells F10): 1.0
ratio of IC50 dose (enhancement effect of diltiazem) (B16 melanoma cells F1): 1.0
ratio of IC50 dose (enhancement effect of diltiazem) (B16 melanoma cells B2): 1.0
ratio of IC50 dose (enhancement effect of diltiazem) (B16 melanoma cells BL-6): 1.0
ratio of IC50 dose (enhancement effect of diltiazem) [4]: 1.0
ratio of IC50 dose (enhancement effect of diltiazem) [5]: 1.0
ratio of IC50 dose (enhancement effect of diltiazem) (Colon 26 tumor cells N-1): 1.0
ratio of IC50 dose (enhancement effect of diltiazem) (Colon 26 tumor cells N-5): 1.0
ratio of IC50 dose (enhancement effect of diltiazem) [6]: 1.0
number of leukocytes and splenoma (chronic myeloplast; after third administration of vincristine 1 mg per week): the number of leukocytes and the splenoma still increased
number of leukocytes and splenoma (chronic myeloplast; vincristine 1 mg per week and predonisolone 60 mg per day): the number of leukocytes and the splenoma were temporarity somewhat recovered

COc1ccc([C@@H]2Sc3ccccc3N(CCN(C)C)C(=O)[C@@H]2OC(C)=O)cc1 [Diltiazem, d-3-acetoxy-cis-2,3-dihydro-5-[2-(dimethylamino)ethyl]-2-(p-methoxyphenyl)-1,5-benzothiazepin-4(5H)-one]
Enhancement effect ([1]; diltiazem 10 μM, P388/VCR): 9.7
Enhancement effect ([1]; diltiazem 35 μM, P388/VCR): 28.8
Enhancement effect ([1]; diltiazem 100 μM, P388/VCR): 54.0
Enhancement effect (P388 leukemia cells; on ADM, diltiazem 10 μM): 1.3
Enhancement effect (P388 leukemia cells; on ADM, diltiazem 35 μM): 1.4
Enhancement effect (P388 leukemia cells; on ADM, diltiazem 100 μM): 1.7
Enhancement effect (P388 leukemia cells; on VCR, diltiazem 10 μM): 1.3
Enhancement effect (P388 leukemia cells; on VCR, diltiazem 35 μM): 3.4
Enhancement effect (P388 leukemia cells; on VCR, diltiazem 100 μM): 4.2
Enhancement effect (P388/ADM; diltiazem 10 μM): 4.5
Enhancement effect (P388/ADM; diltiazem 35 μM): 11.0
Enhancement effect (P388/ADM; diltiazem 100 μM): 19.3
Enhancement effect (K562; diltiazem 10 μM): 1.5
Enhancement effect (K562; diltiazem 35 μM): 2.3
Enhancement effect (K562; diltiazem 100 μM): 3.4
Enhancement effect (K562/VCR; diltiazem 10 μM): 8.7
Enhancement effect (K562/VCR; diltiazem 35 μM): 48.8
Enhancement effect (K562/VCR; diltiazem 100 μM): 77.8
antitumor activity of the agents (ADM, VCR) [7]: the antitumor activity of the agents is enhanced by diltiazem

COc1cccc2c1C(=O)c1c(O)c3c(c(O)c1C2=O)C[C@@](O)(C(=O)CO)C[C@@H]3O[C@H]1C[C@H](N)[C@H](O)[C@H](C)O1 [ADM, doxorubicin]
IC50 (P388 leukemia cells; P388, ADM, diltiazem 0 μM): 10 ± 2.1 ng/mL (≈ 18.4 nM)
IC50 (P388 leukemia cells; P388, ADM, with diltiazem 10 μM): 7.7 ± 3.6 ng/mL (≈ 14.2 nM)
IC50 (P388 leukemia cells; P388, ADM, with diltiazem 35 μM): 6.9 ± 0.7 ng/mL (≈ 12.7 nM)
IC50 (P388 leukemia cells; P388, ADM, with diltiazem 100 μM): 6 ± 0.4 ng/mL (≈ 11 nM)
Enhancement effect (P388 leukemia cells; on ADM, diltiazem 0 μM): 1
IC50 (P388/ADM; ADM, diltiazem 0 μM): 592 ± 76.8 ng/mL (≈ 1090 nM)
IC50 (P388/ADM; ADM, with diltiazem 10 μM): 133 ± 18.4 ng/mL (≈ 245 nM)
IC50 (P388/ADM; ADM, with diltiazem 35 μM): 53.7 ± 3.1 ng/mL (≈ 98.8 nM)
IC50 (P388/ADM; ADM, with diltiazem 100 μM): 30.7 ± 4.1 ng/mL (≈ 56.5 nM)
IC50 (P388/ADM; read-out: concentration of doxorubicin showing 50% inhibition of the cells, with diltiazem 100 μM): ~30 ng/mL (≈ 55.2 nM)
IC50 (P388/ADM; read-out: dose for showing 50% inhibition of the tumor cells, doxorubicin alone): 592 ng/mL (≈ 1090 nM)
Enhancement effect (P388/ADM; diltiazem 0 μM): 1

COc1ccc([C@@H]2Sc3ccccc3N(CCN(C)C)C(=O)[C@@H]2OC(C)=O)cc1 [Diltiazem HCl]
Survival time [2, 9]: 11.8 ± 1.9 days
T/V [2, 9]: 111%
Survival time [2, 10]: 13.8 ± 2.3 days
T/C [2, 10]: 121%
T/V [2, 10]: 130%
Survival time [2, 11]: 12.2 ± 1.3 days
T/V [2, 11]: 115%
Survival time [2, 12]: 13.6 ± 1.9 days
T/C [2, 12]: 119%
T/V [2, 12]: 125%
Survival time [2, 13]: 13.8 ± 1.7 days
T/C [2, 13]: 121%
T/V [2, 13]: 128%
T/C [2, 14]: 126%
T/V [2, 14]: 133%
T/C [2, 15]: 132%
T/V [2, 15]: 139%
T/C [2, 16]: 132%
T/V [2, 16]: 139%
T/C [2, 17]: 130%
T/V [2, 17]: 119%
T/C [2, 18]: 130%
T/V [2, 18]: 119%
T/C [2, 19]: 139%
T/V [2, 19]: 127%
Survival time [2, 20]: 17.0 ± 1.2 days
T/C [2, 20]: 149%
T/V [2, 20]: 137%
Survival time ([2]; diltiazem HCl 100 mg/kg alone): 11.8 ± 0.4 days
Survival time [8]: 13.0 ± 0 days
both symptoms (leukocytes, splenoma) (chronic myeloplast; [21]): both symptoms were remarkably improved
duration of the effect (chronic myeloplast; [21]): about two
side effect (chronic myeloplast; human, in vivo): no side effect was observed
